Experimental data from patent US8592406B2, “Transnasal anticonvulsive pharmaceutical composition comprising poorly soluble anticonvulsant” (SK Biopharmaceuticals Co., Ltd., priority 2008, dated 2013).

Assays:
[1] = humans, transnasal, Cremophor EL vehicle; cited from earlier work
[2] = Pharmacokinetic test of lorazepam-containing nasal formulation in rabbit (bioavailability test); details: plasma, other: transnasal, 1.6 mg/kg
Procedure: Right before this experiment, rabbits (n=3) were weighed, and a mixed solution including 25 mg of ketamine and 4 mg of xylazine was intramuscularly injected to the rabbits per kilogram (Kg) in order to anesthetize the rabbits, and a catheter was fastened to each rabbit to collect blood from rabbits' otic artery. An intravenous injection was performed by administering the mixed solution to the rabbits via the rabbits' otic artery at a dose of 1 mg/kg for approximately 20 seconds. […] Then, each formulation was sprayed to the rabbits using a Pfeiffer nasal spry system.
Blood samples (1 Ml) were collected from the rabbits' otic artery at 0, 2, 5, 10, 20, 30, 45, 60 and 120 minutes after the intravenous injection and transnasal administration of each formulation. Each of the blood samples was centrifuged to separate rabbit plasma, which was stored at −20° C. until is will be used for analysis. In order to analyze the plasma samples, each of the plasma samples (0.5 Ml) was exactly transferred to a 1.5 Ml polypropylene centrifuge tube. […]
In this case, the lorazepam was set to a concentration of 9%, and was administered at a dose of 1.6 mg/kg. […] Each plasma sample pre-treated with acetonitrile was quantified under the following LC/MS/MS conditions. […] The ionization was analyzed in a positive mode using an electrospray ionization (ESI) method, and the ion spray temperature was set to 500° C.

| SMILES | Peak concentration versus intravenous administration [1] | bioavailability [2] [%] |
| --- | --- | --- |
| CN1C(=O)CN=C(c2ccccc2)c2cc(Cl)ccc21 [diazepam] | lower than that observed after the intravenous administration |  |
| O=C1Nc2ccc(Cl)cc2C(c2ccccc2Cl)=NC1O (centres unmarked) [lorazepam] |  | 35 |
